Here are results for 1 compound from patent US7268129B2, “Fluorinated benzothiadiazine compounds” (Les Laboratoires Servier, priority 2005, dated 2007).

The test system of experiment [1] is AMPA receptors. The experiment is described as follows: Effect of compounds on the ionic current induced by AMPA in Xenopus oocytes. Format: cell-based. The conditions noted are these: Xenopus oocytes injected with rat cerebral cortex mRNA, (S)-AMPA 10 μM, voltage-clamp. Here is the method:
mRNA's are prepared from cerebral cortex of male Wistar rats by the caesium chloride/guanidium thiocyanate method. The poly (A^+) mRNA's are isolated using the PolyATtract mRNA Isolation systems kit (Promega, USA) and injected at a level of 50 ng per oocyte. The oocytes are incubated for 3 to 4 days at 18° C. to permit expression of the receptors and are then stored at 4° C. until used.
Electrophysiological recordings are carried out continuously at ambient temperature in a Plexiglass® chamber using OR2 medium (J. Exp. Zool., 1973, 184, 321-334) by the “voltage-clamp” method using two electrodes, with a third electrode placed in the bath serving as reference.
All the compounds and the AMPA are applied via the perfusion medium. (S)-AMPA is used in a concentration of 10 μM. The ionic current induced by the application of AMPA in the absence and presence of compounds is measured. For each compound studied, the concentration that doubles (EC2×) or quintuples (EC5×) the intensity of the current induced by AMPA alone (5 to 50 nA) is determined.

Experiment [2] has as its system Wistar rats aged 3 months. The experiment is described as follows: Object recognition in adult Wistar rats aged 3 months. It is filed as in vivo, rat. The conditions noted are these: male Wistar rats aged 3 months; 0.03 to 1 mg/kg by the oral route 60 minutes before each session; 24 hours between sessions. The source says: The object recognition test in the Wistar rat was initially developed by ENNACEUR and DECACOUR (Behav. Brain Res., 1988, 31, 47-59). The test is based on the spontaneous exploratory activity of the animal and has the characteristics of episodic memory in humans. This memory test is sensitive to ageing (SCALL et al., Eur. J. Pharmacol., 1997, 325, 173-180) and to cholinergic dysfunctions (BARTOLINI et al., Pharm. Biochem. Behav. 1996, 53(2), 277-283) and is based on the differences in the exploration of 2 objects of fairly similar shape—one familiar, the other new. Prior to the test, the animals (male Wistar rats aged 3 months: CERJ, France) are habituated to the environment (an enclosure without an object). In the course of a first session, the rats are placed (3 minutes) in the enclosure, in which there are 2 identical objects. The duration of exploration is measured for each object. In the course of the second session (3 minutes), 24 hours later, 1 of the 2 objects is replaced by a new object. The duration of exploration is measured for each object. The assessment criterion is the difference, Delta, expressed in seconds, between the exploration times for the new object and for the familiar object in the course of the second session.

Experiment [3] relates to Wistar rats aged 17 months. Put plainly: Object recognition in Wistar rats aged 17 months. Format: in vivo, rat. The following applies: male Wistar rats aged 17 months; 0.1 mg/kg by the oral route; 1 hour between sessions. As to the method:
In old rats there is a deficiency in memory retention in the object recognition test. Prior to the test, the animals (male Wistar rats aged 17 months: CERJ, France) are habituated to the environment (an enclosure without an object). In the course of a first session, the rats are placed (3 minutes) in the enclosure, in which there are 2 identical objects. The duration of exploration is measured for each object. In the course of the second session (3 minutes), 1 hour later, 1 of the 2 objects is replaced by a new object. The duration of exploration is measured for each object. The assessment criterion is the difference, Delta, expressed in seconds, between the exploration times for the new object and for the familiar object in the course of the second session.

Like-named read-outs stand apart in the source and are kept apart here.

With `O=S1(=O)NCN(CCF)c2ccc(Cl)cc21` [Example 1, 7-Chloro-4-(2-fluoroethyl)-3,4-dihydro-2H-1,2,4-benzothiadiazine 1,1-dioxide], the concentration multiplying AMPA current (EC2× / EC5×) in experiment [1] (read-out: EC2× (concentration that doubles the intensity of the current induced by AMPA alone)) stood at 6.7 ± 1.4 µM; in experiment [1] (read-out: EC5× (concentration that quintuples the intensity of the current induced by AMPA alone)) it was 14.5 ± 0.6 µM. For the same compound, the “memory retention (object recognition, Delta of exploration times)” value in experiment [2] is on record as “significantly improves memory retention”. Also, in experiment [3], the “age-related deficiency in memory retention (object recognition)” value is reported as “significantly opposes the age-related deficiency in memory retention”.
